Measurements published in ChEMBL document CHEMBL1201862, “PubChem BioAssay data set” (2004).
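Protocol summary: plate cells (96-well), add compound at 5 concentrations, incubate 48 h, interpolate endpoints linearly. GI50 is the concentration that inhibits growth by half.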 The source made the active and inactive calls. Rule as the data show it: active = GI50 up to about 1.1 µM and inactive = higher.

Key:
Test in all cases: growth of human tumour cells (NCI), 48 h
OVCAR-4 = tested on: OVCAR-4
TK-10 = tested on: TK-10
SK-MEL-28 = tested on: SK-MEL-28
SF-539 = tested on: SF-539
MCF7 = tested on: MCF7
Malme-3M = tested on: Malme-3M
RPMI-8226 = tested on: RPMI-8226
MOLT-4 = tested on: MOLT-4
SK-OV-3 = tested on: SK-OV-3
IGROV-1 = tested on: IGROV-1
A549 = tested on: A549
ACHN = tested on: ACHN
SF-295 = tested on: SF-295
OVCAR-5 = tested on: OVCAR-5
M14 = tested on: M14
COLO 205 = tested on: COLO 205
DU-145 = tested on: DU-145
MDA-MB-435 = tested on: MDA-MB-435
RXF 393 = tested on: RXF 393

Measured: GI50

COc1ccc(C(c2ccc(OC)cc2)N2C(=O)CCC2C(=O)O)cc1 (stereo not drawn)
inactive: OVCAR-4 > 100 µM | TK-10 > 100 µM | SK-MEL-28 > 100 µM | SF-539 > 100 µM | MCF7 > 100 µM | Malme-3M > 100 µM | RPMI-8226 > 100 µM | MOLT-4 > 100 µM | SK-OV-3 > 100 µM | IGROV-1 > 100 µM | A549 > 100 µM | ACHN > 100 µM | SF-295 > 100 µM | OVCAR-5 > 100 µM | M14 > 100 µM | COLO 205 > 100 µM | DU-145 > 100 µM | MDA-MB-435 > 100 µM

O=C1Nc2ccccc2/C1=N/Nc1nc(-c2ccc(Cl)c(Cl)c2)cs1
inactive: OVCAR-4 77.6 µM | TK-10 66.2 µM | SK-MEL-28 > 100 µM | SF-539 73.5 µM | MCF7 37.2 µM | MOLT-4 16 µM | SK-OV-3 > 100 µM | IGROV-1 9.73 µM | A549 > 100 µM | ACHN 87.1 µM | SF-295 > 100 µM | OVCAR-5 > 100 µM | M14 78.5 µM | COLO 205 29.9 µM | DU-145 92 µM | MDA-MB-435 72.1 µM

CC(=O)C1C(=O)C(=O)N(c2ccc([N+](=O)[O-])cc2Cl)C1=O (stereo not drawn)
inactive: OVCAR-4 > 100 µM | TK-10 > 100 µM | SK-MEL-28 > 100 µM | SF-539 > 100 µM | MCF7 > 100 µM | MOLT-4 45.6 µM | SK-OV-3 > 100 µM | IGROV-1 > 100 µM | A549 > 100 µM | RXF 393 97.9 µM | ACHN > 100 µM | SF-295 > 100 µM | OVCAR-5 > 100 µM | M14 > 100 µM | COLO 205 > 100 µM | DU-145 > 100 µM | MDA-MB-435 > 100 µM

CC(C)Oc1cc(O)c2c(c1)OCC=C2CCC(=O)O
inactive: OVCAR-4 39.3 µM | TK-10 20.3 µM | SK-MEL-28 36 µM | MCF7 13.9 µM | RPMI-8226 24.4 µM | MOLT-4 23.8 µM | SK-OV-3 49 µM | IGROV-1 35.7 µM | A549 28.1 µM | RXF 393 69.5 µM | ACHN 22.1 µM | SF-295 43.5 µM | OVCAR-5 31.8 µM | M14 25.9 µM | COLO 205 16.2 µM | DU-145 52.5 µM | MDA-MB-435 23.8 µM

O=C1OC(C(O)CO)C(C(O)CO)OC1=O (stereo not drawn)
inactive: OVCAR-4 > 10 µM | TK-10 > 10 µM | SK-MEL-28 > 10 µM | SF-539 > 10 µM | MCF7 > 10 µM | Malme-3M > 10 µM | RPMI-8226 > 10 µM | MOLT-4 > 10 µM | IGROV-1 > 10 µM | A549 > 10 µM | RXF 393 > 10 µM | ACHN > 10 µM | SF-295 > 10 µM | OVCAR-5 > 10 µM | M14 > 10 µM | COLO 205 > 10 µM | MDA-MB-435 > 10 µM

CCOC(=O)c1c(-c2ccc(OC)c(O)c2)c(C#N)c(=S)n(C2OC(CO)C(O)C(O)C2O)c1-c1ccccc1 (stereo not drawn)
inactive: OVCAR-4 > 100 µM | SK-MEL-28 > 100 µM | RPMI-8226 > 100 µM | MOLT-4 > 100 µM | IGROV-1 > 100 µM | A549 > 100 µM | RXF 393 > 100 µM | ACHN > 100 µM | SF-295 > 100 µM | M14 > 100 µM | COLO 205 > 100 µM | DU-145 > 100 µM | MDA-MB-435 > 100 µM

COc1cccc(NC(=O)CC(=O)Nc2cccc(OC)c2)c1
inactive: OVCAR-4 > 100 µM | TK-10 > 100 µM | SK-MEL-28 > 100 µM | SF-539 > 100 µM | MCF7 > 100 µM | Malme-3M > 100 µM | RPMI-8226 > 100 µM | MOLT-4 > 100 µM | SK-OV-3 > 100 µM | IGROV-1 > 100 µM | A549 > 100 µM | ACHN > 100 µM | SF-295 > 100 µM | M14 > 100 µM | COLO 205 > 100 µM | DU-145 > 100 µM | MDA-MB-435 > 100 µM

CC1NOC(NS(=O)(=O)c2ccc(/N=N/c3c(O)c(C(=O)O)cc4ccccc34)cc2)C1C (stereo not drawn)
inactive: OVCAR-4 > 100 µM | TK-10 > 100 µM | SK-MEL-28 > 100 µM | SF-539 > 100 µM | MCF7 > 100 µM | Malme-3M > 100 µM | RPMI-8226 > 100 µM | MOLT-4 > 100 µM | SK-OV-3 > 100 µM | IGROV-1 > 100 µM | A549 > 100 µM | RXF 393 > 100 µM | ACHN > 100 µM | SF-295 > 100 µM | OVCAR-5 > 100 µM | M14 > 100 µM | COLO 205 > 100 µM | MDA-MB-435 > 100 µM

Nc1ccc2nc(Nc3ccc(Cl)c(Cl)c3)cnc2c1
inactive: OVCAR-4 17 µM | TK-10 19.2 µM | SK-MEL-28 17.6 µM | SF-539 29.5 µM | Malme-3M 18.5 µM | RPMI-8226 12.2 µM | MOLT-4 1.6 µM | A549 15.7 µM | ACHN 22.2 µM | SF-295 > 10 µM | OVCAR-5 19.1 µM | M14 14.3 µM | COLO 205 19.4 µM

CCCCN(CCCC)C(=C(C(Cl)=C(Cl)Cl)[N+](=O)[O-])N(CCCC)CCCC
inactive: OVCAR-4 > 100 µM | TK-10 > 100 µM | SK-MEL-28 > 100 µM | SF-539 > 100 µM | Malme-3M > 100 µM | RPMI-8226 18.7 µM | SK-OV-3 > 100 µM | A549 > 100 µM | ACHN > 100 µM | SF-295 > 100 µM | OVCAR-5 85.5 µM | M14 > 100 µM | COLO 205 > 100 µM | DU-145 > 100 µM | MDA-MB-435 > 100 µM

O=C(c1ccncc1)n1nc(-c2ccccc2)c(/N=N/c2ccc([N+](=O)[O-])cc2)c1-c1ccccc1
inactive: OVCAR-4 15 µM | TK-10 57.8 µM | SK-MEL-28 > 100 µM | SF-539 89.5 µM | Malme-3M 90.6 µM | RPMI-8226 28.4 µM | MOLT-4 48.6 µM | SK-OV-3 94.8 µM | IGROV-1 > 100 µM | A549 55.7 µM | SF-295 44.7 µM | M14 92 µM | COLO 205 79.8 µM

CCOc1nc(OCC)nc(-c2cccn2-c2ccccc2)n1
inactive: OVCAR-4 25.8 µM | TK-10 23 µM | SK-MEL-28 35.4 µM | SF-539 51.5 µM | Malme-3M 21.4 µM | MOLT-4 17.7 µM | SK-OV-3 33 µM | IGROV-1 29.6 µM | A549 37.1 µM | RXF 393 29.5 µM | ACHN 32.2 µM | SF-295 33.7 µM | OVCAR-5 74.1 µM | M14 38.3 µM
